# Reference: US5552441A, “Leukotriene B4 antagonists” (Eli Lilly and Company, priority 1994, dated 1996)
# Counter-ions that a name gives are not always drawn.
# Experiments:
# [1] = target: [^3 H]-LTB4 binding to guinea pig lung membranes (Cavia porcellus, UniProt H0VYV8); assay: Inhibition of [^3 H]LTB4 Binding to Guinea Pig Lung Membranes; settings: approximately 140 pM [^3 H]-LTB4, 45 minutes at 30° C., pH 6.5, mean -log Ki, read-out: Inhibition of [^3 H]LTB4 Binding to Guinea Pig Lung Membranes pKi (converted)
# [2] = target: leukotriene B4 specific receptor on the membrane of human neutrophils (Homo sapiens, UniProt Q15722); assay: biochemical; settings: 0.1-0.2 nM ^3 H-LTB4, 10 minutes at 4° C., read-out: Inhibition of [^3 H]LTB4 Binding to Human Neutrophils IC50
# Method: The effectiveness of compounds to inhibit the binding of leukotriene B4 to a specific receptor on the membrane of human neutrophils was measured by using an adaptation of a radio-ligand binding assay developed by Goldman and Goetzl, J. Immunol., 129, 1600 (1982). Other investigators have developed similar assays (see, e.g., Kreisle, et al., J. Exp. Med., 157, 628 (1983) and Lin, et al., Prostaglandins, 28, 837 (1984)).
# Cells used in the assay were isolated by standard techniques of centrifugation on Ficoll-Hypaque, dextran 70 sedimentation and hypotonic lysis. The following procedure was used. Freshly-prepared buffy coat layers from two individuals were obtained from a local blood donor center. The cells were mixed and diluted to 484 ml with phosphate buffered saline containing heparin (10 units/ml) and heat-inactivated calf serum (5%). This was divided into 20 ml aliquots and the aliquots layered on top of Ficoll-Paque (12 ml). The material was then centrifuged at 500 g for 40 minutes at room temperature. The resulting upper layer of platelets and mononuclear cells was discarded. The lower layer containing erythrocytes and neutrophils was retained. Buffer was added (1 ml per 4 ml of lower layer) and the suspension mixed. For each milliliter of this mixture, 0.33 ml of 6% Macrodex was added. After stirring the cells were allowed to sediment for 1 hour at 37° C. The resulting erythrocyte pellet was discarded and the neutrophil enriched supernatant fluid centrifuged at 500 g for 10 minutes at 4° C. […] Subsequently, the volume was made up to 50 ml by addition of ice-cold buffer and the cells resuspended. The suspension was then centrifuged at 300 g for 10 minutes at 4° C. […] This buffer consisted of Hanks' balanced salt solution and 0.1% ovalbumin (pH 7.3).
# The amount of bound ^3 H-LTB4 was then measured and compared with the amount bound in the absence of test compound. The assay was carried out in microcentrifuge tubes by adding first 10 μl test compound dissolved in DMSO, followed by adding 20 μl ^3 H-LTB4 diluted in assay buffer, and finally adding 500 μl of the cell suspension. At the end of the 10 minutes incubation, 300 μl of a mixture of dibutyl and dinonyl phthalate (7:2) were added and the tubes centrifuged for 2 minutes in a microcentrifuge. The radioactivity bound to the cell pellet was measured by scintillation spectroscopy.
# Chain of [^3 H]-LTB4 binding to guinea pig lung membranes (H0VYV8 1-348): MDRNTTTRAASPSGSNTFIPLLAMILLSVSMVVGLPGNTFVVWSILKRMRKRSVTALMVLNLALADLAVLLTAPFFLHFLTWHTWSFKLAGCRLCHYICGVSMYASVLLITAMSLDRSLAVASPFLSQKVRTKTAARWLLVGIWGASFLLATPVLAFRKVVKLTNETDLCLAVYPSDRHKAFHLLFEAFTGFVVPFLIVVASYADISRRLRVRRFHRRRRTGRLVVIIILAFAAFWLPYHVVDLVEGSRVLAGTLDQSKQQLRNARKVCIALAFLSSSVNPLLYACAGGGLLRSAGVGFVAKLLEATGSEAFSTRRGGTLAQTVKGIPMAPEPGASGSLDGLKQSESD
# Chain of leukotriene B4 specific receptor on the membrane of human neutrophils (Q15722 whole entry): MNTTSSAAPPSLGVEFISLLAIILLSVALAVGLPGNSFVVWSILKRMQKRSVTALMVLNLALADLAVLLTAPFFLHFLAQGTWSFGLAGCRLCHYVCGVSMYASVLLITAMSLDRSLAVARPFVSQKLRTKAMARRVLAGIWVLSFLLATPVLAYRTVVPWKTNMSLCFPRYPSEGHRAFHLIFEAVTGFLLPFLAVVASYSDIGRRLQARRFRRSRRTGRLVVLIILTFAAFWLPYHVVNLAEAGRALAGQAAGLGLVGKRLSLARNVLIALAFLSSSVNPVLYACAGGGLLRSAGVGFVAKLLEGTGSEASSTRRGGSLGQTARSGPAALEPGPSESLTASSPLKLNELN
compound,measurement,setting,value
"CCCc1c(OCCCOc2cc(O)c(C(C)=O)cc2CC)ccc2c1OC(C(=O)O)CC2 (centres unmarked) [Example 1, 7-[3-(4-acetyl-2-ethyl-5-hydroxyphenoxy)propoxy]-3,4-dihydro-8-propyl-2H-1-benzopyran-2-carboxylic acid]",Ki,[1],8.13 nM
"CCCc1c(OCCCOc2cc(O)c(C(C)=O)cc2CC)cccc1OCC(=O)O [Example 3, 2-[2-propyl-3-[[3-(4-acetyl-2-ethyl-5-hydroxyphenoxy)proyl]oxy]phenoxy]acetic acid]",IC50,[2],67 nM
same,Ki,[1],4.79 nM
"CCCc1c(OCCCOc2cc(O)c(C(C)=O)cc2CC)cccc1OC(C)C(=O)O (centres unmarked) [Example 4, 2-[3-[3-(4-acetyl-2-ethyl-5-hydroxyphenoxy)propoxy)-2-propylphenoxy]propanoic acid]",IC50,[2],23 nM
same,Ki,[1],15.1 nM
"CCCc1c(OCCCOc2cc(O)c(C(C)=O)cc2CC)cccc1OC(CC)C(=O)O (centres unmarked) [Example 5, 2-[3-[3-(4-acetyl-2-ethyl-5-hydroxyphenoxy)propoxy)-2-propylphenoxy]butanoic acid]",Ki,[1],13.8 nM
"CCCc1c(OCCCOc2cc(O)c(C(C)=O)cc2CC)c(I)cc2c1OC(C(=O)O)CC2 (centres unmarked) [Example 6, 6-iodo-8-propyl-7-[3-[4-acetyl-2-ethyl-5-hydroxyphenoxy)propoxy]-3,4-dihydro-2H-1-benzopyran-2-caroxylic acid]",IC50,[2],327 nM
same,Ki,[1],25.7 nM
"CCc1cc(C(C)=O)c(O)cc1OCCCOc1ccc2c(=O)c3cc(C(=O)O)ccc3oc2c1 [Example 7, 6-[3-(4-acetyl-2-ethyl-5-hydroxyphenoxy)propoxy]-9-oxo-9H-xanthene-2-carboxylic acid disodium salt sesquihydrate]",IC50,[2],190 nM
same,Ki,[1],741 nM
"CCc1cc(C(C)=O)c(O)cc1OCCCOc1ccc2oc3ccccc3c2c1CCC(=O)O [Example 8, 3-[1-[2-[3-(4-acetyl-2-ethyl-5-hydroxyphenoxy)propoxy]dibenzofuran]]propanoic acid disodium salt]",IC50,[2],43 nM
same,Ki,[1],2.04 nM
"CCCc1cc(Oc2cccc(C(=O)O)c2)ccc1OCCCOc1cc(O)c(C(C)=O)cc1CC [Example 9, 3-[3-propyl-4-[3-(4-acetyl-2-ethyl-5-hydroxyphenoxy)propoxy]phenoxy]benzoic acid disodium salt]",IC50,[2],158 nM
same,Ki,[1],257 nM
"CCc1cc(C(C)=O)c(O)cc1OCCCOc1ccc(-c2ccccc2)cc1CCC(=O)O [Example 11, 3-[1-[5-phenyl-2-[3-(4-acetyl-2-ethyl-5-hydroxyphenoxy)propoxy]phenyl]]propanoic acid disodium salt]",IC50,[2],115 nM
same,Ki,[1],28.2 nM
"CCc1cc(C(C)=O)c(O)cc1OCCCOc1cccc(Oc2ccccc2C(=O)O)c1 [Example 13, 2-[3-[3-(4-acetyl-2-ethyl-5-hydroxyphenoxy)propoxy]phenoxy]benzoic acid disodium salt hemihydrate]",IC50,[2],291 nM
same,Ki,[1],182 nM
"CCc1cc(C(C)=O)c(O)cc1OCCCOc1cccc(Oc2cccc(C(=O)O)c2)c1 [Example 14, 3-[3-[3-(4-acetyl-2-ethyl-5-hydroxyphenoxy)propoxy]phenoxy]benzoic acid disodium salt hemihydrate]",IC50,[2],456 nM
same,Ki,[1],174 nM
"CCc1cc(C(C)=O)c(O)cc1OCCCOc1ccc2c(=O)c3cc(C(=O)O)ccc3oc2c1CCC(=O)O [Example 15, 3-[4-[7-carboxy-3-[3-(4-acetyl-2-ethyl-5-hydroxyphenoxy)propoxy]-9-oxo-9H-xanthene]]propanoic acid trisodium salt trihydrate]",Ki,[1],0.977 nM
"CCc1cc(C(C)=O)c(O)cc1OCCCOc1ccc2ccc(OCC(=O)O)cc2c1 [Example 16, [2-[7-[3-(4-Acetyl-2-ethyl-5-hydroxyphenoxy)propoxy]naphthalenyl]oxy]acetic acid sodium salt hydrate]",IC50,[2],409 nM
same,Ki,[1],117 nM
"CCCc1c(OCCCOc2cc(O)c(C(C)=O)cc2CC)cccc1OCc1ccccc1C(=O)O [Example 17, 2-[[3-[3-(4-acetyl-2-ethyl-5-hydroxyphenoxy)propoxy]-2-propylphenoxy]methyl]benzoic acid disodium salt hemihydrate]",IC50,[2],127 nM
same,Ki,[1],170 nM
"CCCc1c(OCCCCOc2cc(O)c(C(C)=O)cc2CC)cccc1Oc1ccccc1C(=O)O [Example 18, 2-[3-[4-(4-Acetyl-2-ethyl-5-hydroxyphenoxy)butoxy]-2-propyl-phenoxy]benzoic acid disodium salt]",IC50,[2],94 nM
same,Ki,[1],53.7 nM
"CCCc1c(OCCCOc2cc(O)c(C(C)=O)cc2CC)cccc1Oc1ccccc1C(=O)O [Example 19, 2-[3-[3-(4-Acetyl-2-ethyl-5-hydroxyphenoxy)propoxy]-2-propylphenoxy]benzoic acid disodium salt hydrate]",IC50,[2],24 nM
same,Ki,[1],34.7 nM
"CCc1cc(C(C)=O)c(O)cc1OCCCOc1ccc(C(=O)c2cccc(C(=O)O)c2)cc1CCC(=O)O [Example 20, 3-[1-[2-[3-(4-acetyl-2-ethyl-5-hydroxyphenoxy)propoxy]-5-(3-carboxybenzoyl)phenyl]]propanoic acid trisodium salt hydrate]",IC50,[2],46 nM
same,Ki,[1],6.61 nM
CCCc1cc(Oc2ccc(C(=O)O)cc2)ccc1OCCCOc1cc(O)c(C(C)=O)cc1CC [sodium salt hydrate],IC50,[2],326 nM
same,Ki,[1],1000 nM
CCc1cc(C(C)=O)c(O)cc1OCCCOc1ccc(Oc2ccc(C(=O)O)cc2)cc1 [sodium salt hydrate],IC50,[2],193 nM
same,Ki,[1],132 nM
